Tests used:
[1] = KYNA permeability in in vitro blood-brain barrier model; type: in vitro ADME, rat; conditions: Wistar, rat, 20 μM KYNA final concentration, corrected for empty filters, read-out: permeability coefficient Pe
Description: The permeability of KYNA through the blood-brain barrier from BSA/KYNA/PAH nanocapsules was determined by means of an in vitro blood-brain barrier model. The description of the model is the following: microvessel rat brain endothelial cells were isolated from 2 to 3 weeks old Wistar animals by means of a method described earlier (Wilhelm és munkatársai, 2011). After the removal of the meninges, the brain tissue was dissectioned to small pieces, then it was digested by type 2 collagenase and collagenase/dispase, finally it was centrifuged on percoll gradient. The microvessel fragments were plated on collagenIV/fibronectin-coated Petri dishes and were cultured in DMEM/F12 in the presence of plasma serum and growth factors. […]
From these samples the concentration of KYNA was determined using an Agilent 1100 HPLC-MS system (Agilent Technologies, Santa Clara, Calif., USA).
To calculate the permeability coefficient the following formulae were applied: PappdQ/(dT×A×C0), wherein dQ stands for the crossed amount of the material, dT stands for the incubation period of time (1 hour), A stands for the surface of the filter and C0 stands for the starting concentration (20 μM). The values thus calculated were compared to the values measured on empty (not containing cells) filters according to the following method: […]).

[2] = stability study of KYNA in MQ with and without 150 mM NaCl and in buffer; conditions: for demonstrated stability until: PBS buffer at pH=7.4 (physiological solution)
Description: New types of nanocomposites have been prepared within physiological conditions, in the nano-size range for the purpose of crossing the pharmaceutically active ingredients through the blood-brain barrier. […] The amount of the material constituting the composites, than the conditions of the preparation were determined. Stability studies were performed for the active ingredients by ensuring various conditions (pH=3 to 8 in physiological solution and without said physiological solution, in both phosphate and HEPES buffers). […]
The release tests were made in case of KYNA in PBS buffer at pH=7.4. (physiological solution). […]

[3] = tested on: somatosensory evoked potentials (SEPs); test: in vivo amplitudes of somatosensory evoked potentials after peripheral administration; set-up: species or system male Wistar rats; conditions: intraperitoneal administration, 300 mg/kg, n=5
Description: The preparation of the corresponding composite (FIG. 1) was accomplished with the following parameters. […] At a neutral pH the compact structure of the protein offers an opportunity to enclose large amount of kynurenic acid. In the “heart shaped” conformation of the BSA, the hydrophobic parts directed inside the conformation can form hydrogen-bridge, hydrophobic, furthermore ππ interactions with the KYNA molecule. […] After the in vitro drug release experiments the KYNA permeability was investigated with the help of an in vitro blood-brain barrier model. […] The animal experiments were performed on male Wistar rats (300 g, n=30). During the tests the effect of the peripherally administered KYNA was investigated in the central nervous system.

[4] = in vitro drug release in Franz cell (vertical diffusion cell), kinetic models; type: physicochemical
Description: FIG. 7: A schematic figure of the Franz-cell (vertical diffusion cell) with which the in vitro drug release experiments were carried out. […] The active ingredient release tests were made at two temperatures: at 25 and 37.5° C. (FIGS. 7 and 8).

[5] = DOPA containing composites, 25° C.
[6] = DOPA containing composites, 37.5° C.
[7] = KYNA containing composites, 25° C.
[8] = KYNA containing composites, 37.5° C.

## O=C(O)c1cc(=O)c2ccccc2[nH]1 [KYNA, kynurenic acid]
[1]
  Papp at 1 h, 20 µM: 3.71 ×10⁻⁶ cm/s
[2]; HEPES (150 mM NaCl), 0 h
  stability of KYNA: stable
[2]; HEPES (150 mM NaCl), 24 h
  stability of KYNA: unstable
[2]; HEPES (150 mM NaCl), 48 h
  stability of KYNA: unstable
[2]; HEPES (150 mM NaCl), 72 h
  stability of KYNA: unstable
[2]; HEPES (150 mM NaCl), 96 h
  stability of KYNA: unstable
[2]; release tests of IBU
  demonstrated stability until: 96 h
[2]; release tests of KYNA
  demonstrated stability until: 72 h
[2]; in buffer
  degrading of KYNA as a result of the buffers: already starts in the first hours
[2]; pH 3 (MQ + 150 mM NaCl), 0 h
  stability of KYNA: stable
[2]; pH 3 (MQ + 150 mM NaCl), 24 h
  stability of KYNA: stable
[2]; pH 3 (MQ + 150 mM NaCl), 48 h
  stability of KYNA: stable
[2]; pH 3 (MQ + 150 mM NaCl), 72 h
  stability of KYNA: stable
[2]; pH 3 (MQ + 150 mM NaCl), 96 h
  stability of KYNA: unstable
[2]; pH 3 (MQ), 0 h
  stability of KYNA: stable
[2]; pH 3 (MQ), 24 h
  stability of KYNA: stable
[2]; pH 3 (MQ), 48 h
  stability of KYNA: stable
[2]; pH 3 (MQ), 72 h
  stability of KYNA: stable
[2]; pH 3 (MQ), 96 h
  stability of KYNA: unstable
[2]; pH 4 (MQ + 150 mM NaCl), 0 h
  stability of KYNA: stable
[2]; pH 4 (MQ + 150 mM NaCl), 24 h
  stability of KYNA: stable
[2]; pH 4 (MQ + 150 mM NaCl), 48 h
  stability of KYNA: stable
[2]; pH 4 (MQ + 150 mM NaCl), 72 h
  stability of KYNA: stable
[2]; pH 4 (MQ + 150 mM NaCl), 96 h
  stability of KYNA: unstable
[2]; pH 4 (MQ), 0 h
  stability of KYNA: stable
[2]; pH 4 (MQ), 24 h
  stability of KYNA: stable
[2]; pH 4 (MQ), 48 h
  stability of KYNA: stable
[2]; pH 4 (MQ), 72 h
  stability of KYNA: unstable
[2]; pH 4 (MQ), 96 h
  stability of KYNA: unstable
[2]; pH 5 (MQ + 150 mM NaCl), 0 h
  stability of KYNA: stable
[2]; pH 5 (MQ + 150 mM NaCl), 24 h
  stability of KYNA: stable
[2]; pH 5 (MQ + 150 mM NaCl), 48 h
  stability of KYNA: unstable
[2]; pH 5 (MQ + 150 mM NaCl), 72 h
  stability of KYNA: unstable
[2]; pH 5 (MQ + 150 mM NaCl), 96 h
  stability of KYNA: unstable
[2]; pH 5 (MQ), 0 h
  stability of KYNA: stable
[2]; pH 5 (MQ), 24 h
  stability of KYNA: stable
[2]; pH 5 (MQ), 48 h
  stability of KYNA: stable
[2]; pH 5 (MQ), 72 h
  stability of KYNA: stable
[2]; pH 5 (MQ), 96 h
  stability of KYNA: unstable
[2]; pH 6 (MQ + 150 mM NaCl), 0 h
  stability of KYNA: stable
[2]; pH 6 (MQ + 150 mM NaCl), 24 h
  stability of KYNA: stable
[2]; pH 6 (MQ + 150 mM NaCl), 48 h
  stability of KYNA: stable
[2]; pH 6 (MQ + 150 mM NaCl), 72 h
  stability of KYNA: stable
[2]; pH 6 (MQ + 150 mM NaCl), 96 h
  stability of KYNA: unstable
[2]; pH 6 (MQ), 0 h
  stability of KYNA: stable
[2]; pH 6 (MQ), 24 h
  stability of KYNA: stable
[2]; pH 6 (MQ), 48 h
  stability of KYNA: stable
[2]; pH 6 (MQ), 72 h
  stability of KYNA: unstable
[2]; pH 6 (MQ), 96 h
  stability of KYNA: unstable
[2]; pH 7 (MQ + 150 mM NaCl), 0 h
  stability of KYNA: stable
[2]; pH 7 (MQ + 150 mM NaCl), 24 h
  stability of KYNA: stable
[2]; pH 7 (MQ + 150 mM NaCl), 48 h
  stability of KYNA: stable
[2]; pH 7 (MQ + 150 mM NaCl), 72 h
  stability of KYNA: stable
[2]; pH 7 (MQ + 150 mM NaCl), 96 h
  stability of KYNA: unstable
[2]; pH 7 (MQ), 0 h
  stability of KYNA: stable
[2]; pH 7 (MQ), 24 h
  stability of KYNA: stable
[2]; pH 7 (MQ), 48 h
  stability of KYNA: stable
[2]; pH 7 (MQ), 72 h
  stability of KYNA: unstable
[2]; pH 7 (MQ), 96 h
  stability of KYNA: unstable
[2]; pH 8 (MQ + 150 mM NaCl), 0 h
  stability of KYNA: stable
[2]; pH 8 (MQ + 150 mM NaCl), 24 h
  stability of KYNA: stable
[2]; pH 8 (MQ + 150 mM NaCl), 48 h
  stability of KYNA: stable
[2]; pH 8 (MQ + 150 mM NaCl), 72 h
  stability of KYNA: stable
[2]; pH 8 (MQ + 150 mM NaCl), 96 h
  stability of KYNA: unstable
[2]; pH 8 (MQ), 0 h
  stability of KYNA: stable
[2]; pH 8 (MQ), 24 h
  stability of KYNA: stable
[2]; pH 8 (MQ), 48 h
  stability of KYNA: stable
[2]; pH 8 (MQ), 72 h
  stability of KYNA: stable
[2]; pH 8 (MQ), 96 h
  stability of KYNA: unstable
[3]
  change of amplitude of somatosensory evoked potentials: no significant change
[4]; [5]
  Release rate, depending on the concentration, first-order kd: 0.0079 s⁻¹
  Release rate, diffusion controlled, Higuchi kd: 6.9 * 10^−0 s^−1/2
  Release rate, not depending on the concentration, zero-order kd: 0.63 s⁻¹
[4]; [6]
  Release rate, depending on the concentration, first-order kd: 0.0098 s⁻¹
  Release rate, diffusion controlled, Higuchi kd: 7.0 * 10^−0 s^−1/2
  Release rate, not depending on the concentration, zero-order kd: 0.0062 s⁻¹
[4]; [7]
  Release rate, depending on the concentration, first-order kd: 0.0015 s⁻¹
  Release rate, diffusion controlled, Higuchi kd: 4.9 * 10^−3 s^−1/2
  Release rate, not depending on the concentration, zero-order kd: 0.0004 s⁻¹
[4]; [8]
  Release rate, diffusion controlled, Higuchi kd: 1.2 * 10^−2 s^−1/2
  Release rate, not depending on the concentration, zero-order kd: 0.001 s⁻¹
[4]; in vitro release profiles
  kinetic model that characterizes / best fits the release: Higuchi model

— US10857236B2, “Sustained release nanocomposite, a process for producing the same and use thereof” (SZEGEDI TUDOMÁNYEGYETEM, priority 2015, dated 2020)
